# PubChem BioAssay (NCI)
# “And” between values parts separate entries of the source, which are not always exact repeats. Identical values can stand only once.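 Cells were grown in 96-well plates and exposed to each compound for 48 hours at five concentrations; endpoints were interpolated linearly between bracketing concentrations, or set to the highest concentration if not reached. GI50 = concentration required for 50% inhibition of growth. Definition used: TGI = concentration required for complete inhibition of growth.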 *1 amine or outer side, *2 acyl side, *3 side chain or, on linkers, in order; H or OH if unused. Where a SMILES comes first, the peptide text is derived from it. Bridges are numbered along the chain shown (N, C = ends). Roman numbers before positions name the chains, in order. [ ]: non-standard residue; d: D form. Actinocin(9to1) = Cc1c2oc3c(C)ccc(C(=O)[*:1])c3nc-2c(C(=O)[*:2])c(N)c1=O; NMeV = CN[CH](C(=O)O)C(C)C; Sar = CNCC(=O)O
# Columns and labels:
# Assay in all cases: NCI anticancer screen, dose series, 48 h
# A498 renal = system: A498 renal
# RPMI-8226 leukemia = system: RPMI-8226 leukemia
# COLO 205 colon = system: COLO 205 colon
# MOLT-4 leukemia = system: MOLT-4 leukemia
# A549 NSCLC = system: A549 NSCLC
# T-47D breast = system: T-47D breast
# NCI-H23 lung = system: NCI-H23 lung
# NCI/ADR-RES ovarian = system: NCI/ADR-RES ovarian
# OVCAR-5 ovarian = system: OVCAR-5 ovarian
# SF-295 CNS = system: SF-295 CNS
SMILES,TGI (A498 renal) [µM],TGI (RPMI-8226 leukemia) [µM],TGI (COLO 205 colon),TGI (MOLT-4 leukemia) [µM],TGI (A549 NSCLC) [µM],TGI (T-47D breast) [µM],TGI (NCI-H23 lung),GI50 (NCI/ADR-RES ovarian) [µM],TGI (NCI/ADR-RES ovarian) [µM],TGI (OVCAR-5 ovarian) [µM],TGI (SF-295 CNS),GI50 (A498 renal) [µM]
"Cc1c2oc3c(C)ccc(C(=O)NC4C(=O)NC(Cc5ccccc5)C(=O)N5CCCC5C(=O)N(C)CC(=O)N(C)C(C(C)C)C(=O)OC4C)c3nc-2c(C(=O)NC2C(=O)NC(Cc3ccccc3)C(=O)N3CCCC3C(=O)N(C)CC(=O)N(C)C(C(C)C)C(=O)OC2C)c(N)c1=O (configuration not stated) (I: TFP[Sar][NMeV] / II: TFP[Sar][NMeV]; ester I:1-I:C, II:1-II:C; linker I:N-II:N via Actinocin(9to1); configuration not given here)",0.0244,> 100,0.0112 µM and 0.0174 µM,< 0.001,0.0252,0.0647,0.0202 µM and 0.0398 µM,0.877,> 100,0.0551,0.0465 µM and 0.413 µM,–
Cn1cccc1-c1ccc(-c2ccc(CO)[se]2)[se]1,> 100,47.7,> 86.4 µM,71.4,> 100,> 83.7,> 90 µM,–,> 81,> 100,> 95.8 µM,–
CC(=O)O[C@H]1CC[C@@]2(C)C(=CC[C@@H]3[C@@H]2CC[C@]2(C)C(=N/O)/C(=C\c4ccccc4)C[C@@H]32)C1,33,> 100,32 µM,> 28.5,97.5,> 93.7,> 100 µM,–,> 72.9,70.2,67.1 µM,–
C/C=C(\C)C(=O)OC1CC(OC(C)=O)C2(C(=O)OC)COC3C2C1(C)C1C2(C(=O)OC)OCC1(C3O)C1(O)C3CC(C4(O)C=COC4O3)C1(C)O2 (configuration not stated),> 100,> 100,> 100 µM,> 100,> 100,> 100,> 100 µM,–,> 100,> 100,> 100 µM,–
Cc1cc(S(=O)(=O)Nc2nc3ncccc3[nH]2)c(S)cc1Cl,> 100,> 100,> 100 µM,> 100,> 100,> 100,> 100 µM,–,> 100,> 100,> 100 µM,–
NS(=O)(=O)c1nc(S(=O)(=O)O)c2[nH]cnc2n1,> 100,> 100,> 100 µM,> 100,> 100,> 100,> 100 µM,–,> 100,> 100,> 100 µM,–
C=C(C(=O)O[C@H]1C/C(C)=C/CC/C(CO)=C/[C@H]2C(=O)OC(=C)[C@H]12)C(O)CO (some centres not stated),32.7,4.95,13.4 µM,13.2,49.8,11.8,32.7 µM,–,48.4,33,> 60.8 µM,–
C[C@@H]1[C@@H](C)C(c2ccccc2)O[Si]1(C(C)(C)C)C(C)(C)C (some centres not stated),33.9,50.3,30.3 µM,33.9,30.3,37.2,30.3 µM,–,33,31.4,30.2 µM,–
c1nc(NCCc2cnc[nH]2)c2[nH]cnc2n1,> 100,> 100,> 100 µM,> 100,> 100,> 100,> 100 µM,–,> 100,> 100,> 100 µM,–
O=C1CCCNn2c(nc3ncccc3c2=O)N1,> 100,> 100,> 100 µM,> 100,> 100,> 100,> 100 µM,–,> 100,> 100,> 100 µM,–
NCCCN(CCCCN(CCCN)C(=O)OCc1ccccc1)C(=O)OCc1ccccc1,> 100,> 100,> 100 µM,> 100,> 100,> 100,> 100 µM,–,> 100,> 100,> 100 µM,–
COC(=O)C1CC2(C)C=CC1N(C(=O)OCc1ccccc1)C2 (configuration not stated),> 100,> 100,> 100 µM,> 100,> 100,> 100,> 100 µM,–,> 100,> 100,> 100 µM,–
COc1cc(/C=C2\CC/C(=C\c3cc(OC)c(O)c(OC)c3)C2=O)cc(OC)c1O,2.86,4.01,54.2 µM,8,> 62.1,8.02,5.72 µM,–,13.9,> 100,> 100 µM,–
COc1ccc(-n2c(=O)c3[nH]c(=S)[nH]c3n(-c3ccc(OC)cc3)c2=S)cc1,> 100,> 100,> 100 µM,> 100,> 100,> 100,> 100 µM,–,> 100,> 100,> 100 µM,–
CCOC(=O)C1CC(C(=O)c2ccccc2)N2c3ccccc3-c3ccccc3C12 (configuration not stated),> 100,40.8,> 100 µM,> 100,> 100,> 100,> 100 µM,–,> 100,> 100,> 100 µM,–
CCCCc1ccc(Nc2ncc3ncn(COCCO)c3n2)cc1,> 100,50,> 100 µM,53.1,> 100,> 100,> 100 µM,–,> 100,> 100,80.1 µM,–
CCOC(=O)/C(C(N)=O)=C(\O)C(=O)/C(Br)=C(\O)c1ccccc1,> 100,29.4,33.4 µM,8.33,43.5,54.4,37.3 µM,–,72.9,37.5,> 100 µM,–

SMILES,TGI (A498 renal) [µM],TGI (RPMI-8226 leukemia) [µM],TGI (COLO 205 colon),TGI (MOLT-4 leukemia) [µM],TGI (A549 NSCLC) [µM],TGI (T-47D breast) [µM],TGI (NCI-H23 lung),GI50 (NCI/ADR-RES ovarian) [µM],TGI (NCI/ADR-RES ovarian) [µM],TGI (OVCAR-5 ovarian) [µM],TGI (SF-295 CNS),GI50 (A498 renal) [µM]
COC(=O)C1=C(OC(=O)/C(=C/c2ccccc2)c2ccc(OC)cc2)C(C(=O)OC)[C@@]2(O)[C@@H](C(=O)OC)[C@H](C)C[C@@H]1[C@@H]2C(=O)OC (some centres not stated),> 100,> 100,> 100 µM,> 100,> 100,> 100,> 100 µM,–,> 100,> 100,> 100 µM,–
O=C(O)CSc1ccccc1C(=O)O,> 100,> 100,> 100 µM,> 100,> 100,> 100,> 100 µM,–,> 100,> 100,> 100 µM,–
N#Cc1nc2cc(Cl)ccc2nc1N1CCN(c2ccc([N+](=O)[O-])cc2)CC1,> 100,> 100,> 100 µM,> 100,> 100,> 100,> 100 µM,–,> 100,> 100,> 100 µM,–
COC(C/C(=C/CO[Si](C(C)C)(C(C)C)C(C)C)C(=O)N(COCC[Si](C)(C)C)c1ccccc1I)OC,> 100,> 100,> 100 µM,> 100,> 100,> 100,79.5 µM,–,> 100,87.2,17.4 µM,–
Cc1ccc(S(=O)(=O)NC(CCC(=O)NNc2ccccc2)C(=O)NNc2ccccc2)cc1 (configuration not stated),> 100,> 100,54.1 µM,> 100,48.8,> 100,> 100 µM,–,> 100,> 100,> 100 µM,–
CCn1c(=O)c2nc(SC)sc2n(-c2ccc(C)cc2)c1=O,> 100,> 100,> 100 µM,> 100,> 100,> 100,> 100 µM,–,> 100,> 100,> 100 µM,28.2
NNC(=O)Nc1nc2ccc(NN)cc2[nH]1,77.3,26.7,37.3 µM,32.3,> 100,> 100,> 100 µM,–,> 100,> 100,> 100 µM,–
Cc1c(C(=O)c2ccc(N)c3ccccc23)c2ccccc2n1CCN1CCOCC1,81.8,> 61.1,86.9 µM,> 67.7,99.1,> 100,> 100 µM,–,> 91.5,98.2,48.5 µM,–
C1=NCCNCCNCCN=Cc2ccc(cc2)OCc2cccc(n2)COc2ccc1cc2,> 100,> 100,> 100 µM,> 100,> 100,> 100,> 100 µM,–,> 100,> 100,> 100 µM,–
COc1cccc(N=N/C(=N/NC(=O)c2ccc(C)cc2)c2ccc(N(CCC#N)CCC#N)cc2OC)c1,> 100,> 100,> 100 µM,> 100,> 100,> 100,> 100 µM,–,> 100,39.1,> 100 µM,–
CSC(=S)Nc1cc(C)cc(C)n1,> 100,> 31.6,> 31.6 µM,> 31.6,> 31.6,> 31.6,> 31.6 µM,–,> 31.6,> 31.6,> 31.6 µM,–
N#CC1(C#N)C(C#N)(C#N)C1(C#N)C(N)=O,> 100,> 100,> 100 µM,> 100,> 100,> 100,> 100 µM,–,> 100,> 100,> 100 µM,–
Nc1ccc(-c2nc3ccccc3s2)cc1Cl,4.17,> 100,> 100 µM,> 100,> 100,> 100,> 100 µM,–,> 100,> 100,> 100 µM,–
C[C@]12CC[C@H]3[C@@H](CCC4=CC(=O)C=C[C@@]43OC(=O)C(F)(F)F)[C@@H]1CCC2=O,> 100,> 100,> 100 µM,> 100,> 100,> 100,> 100 µM,–,> 100,> 100,> 100 µM,–
Cc1ccc(S(=O)(=O)N2C[C@@H]3CC[C@]4(CO[Si](C)(C)C(C)(C)C)N[C@@H](c5ccccc5)[C@H]2[C@H]34)cc1,> 100,46.8,58.8 µM,> 100,> 100,52.6,> 100 µM,–,> 100,> 100,> 100 µM,–
FC(F)(F)c1cc(N(C2c3ccccc3C=Cc3ccccc32)P(Cl)Cl)cc(C(F)(F)F)c1,56.8,51.2,51.6 µM,54.4,44.1,56.4,97.7 µM,–,21.6,49.6,41.8 µM,–
